Where “and” joins values, the source holds several entries; their conditions need not be identical. Identical values can stand only once. Like-named read-outs stand apart in the source and are kept apart here.
What was measured:
Format in all cases: cell-based, human
[1] = system: DNA synthesis in HL-60 cells; assay: Inhibition of [3H-methyl]dThd incorporation into DNA of HL-60 cells; conditions: for inhibition at 30 µg/mL: Homo sapiens, HL-60, at 0.03 mg/mL, read-out: % Inhibition of Precursor Incorporation, DNA; for inhibition of DNA synthesis, in words: HL-60, 0.03 mg/ml; for % Inhibition of Precursor Incorporation, DNA: at 0.03 mg/mL
Protocol: (§1) For the precursor incorporation studies, each compound (in 0.3% dimethylsulfoxide) was preincubated with HL-60 cells (a human promyelocytic leukemic cell line) 2.2×10^6 /ml, for 15 min prior to the addition of the labeled precursor (obtained from ICN Radiochemicals, Irvine, Calif.) and then incubated for 30 min. The precursors used for incorporation into DNA, RNA and protein were [^3 H-methyl]dThd (1 μCi, 0.15 nmole/ml), [5-^3 H]Cyd (5 μCi, 0.23 nmol/ml), and [2,3,4,5-^3 H]L-Leu (0.5 μCi, 0.004 nmol/ml), respectively. Incorporation of radioactivity in the absence of a plant compound and in the presence of dimethylsulfoxide was used as a control.
Human promyelocytic cells (HL-60) were incubated with [^3 H-methyl]dTHDin the presence and absence of a plant alkaloid.

[2] = system: RNA synthesis in HL-60 cells; assay: Inhibition of [5-3H]Cyd incorporation into RNA of HL-60 cells; conditions: for inhibition at 30 µg/mL: Homo sapiens, HL-60, 0.5 h
Protocol: as §1, with “control. The control values for incorporation into DNA, RNA and protein were 8,500, 5,600 and 1,700 cpm/10^6 cells, respectively. The incubation conditions and the procedures for isolating DNA, RNA and protein fractions have been previously described (Chou, T. -C., et al., Cancer Res., 43:3074-3079 (1983)) .” for “control.”
(§2) HL-60 cells were incubated with [5-^3 H]Cyd or [2,3,4,5-^3 H]L-Leu in the presence and absence of alkaloids (0.03 mg/ml) in order to find the effects of the alkaloid on the incorporation of labeled precursors into RNA or protein. […] Over 90% of RNA and protein biosynthesis were inhibited by compounds 11, 16, 17, 22, 28, 29and 30 (Table 1). […] In most cases, the amount required to inhibit precursor incorporation into DNA was less than that to inhibit precursor incorporation into RNA or protein (i.e. DNA synthesis is inhibited most potently).

[3] = system: protein synthesis in HL-60 cells; assay: Inhibition of [2,3,4,5-3H]L-Leu incorporation into protein of HL-60 cells; conditions: for inhibition at 30 µg/mL: Homo sapiens; for % Inhibition of Precursor Incorporation, Protein: at 0.03 mg/mL
Protocol: as §1, with “control. The control values for incorporation into DNA, RNA and protein were 8,500, 5,600 and 1,700 cpm/10^6 cells, respectively. The incubation conditions and the procedures for isolating DNA, RNA and protein fractions have been previously described (Chou, T. -C., et al., Cancer Res., 43:3074-3079 (1983)) .” for “control.”
as §2

HL-60 cells = assay: HL-60 cell growth inhibition, 72 h; conditions: HL-60, 72 h; for IC50: read-out: Cell Growth Inhibition, IC50
Protocol: For growth inhibition studies, HL-60 cells (1.5×10^5 /ml) were grown in RPMI 1640 media (GIBCO, Grand Island, N.Y.) at 37° C. in humidified 5% CO2 for 72 h. Viable cells were determined using trypan blue exclusion and counted in a hemocytometer. The fractional inhibition for each compound concentration (0.0025-0.05 mg/ml in 0.1% dimethylsulfoxide) was analyzed with the median-effect plot using a computer program (Chou, T. -C and P. Talalay, Adv. Enzyme Regul., 22:27-55 (1984); Chou, J. and T. -C. thou, Dose-Effect analysis with microcomputers: Quantitation of ED50, LD50, synergism, antagonism, low-dose risk, receptor ligand binding and enzyme kinetics. A computer software disk for Apple II series or IBM-PC and manual. Elsevier Science Publishers, Elsevier-BioSoft, Cambridge, United Kingdom (1986)). The median-effect concentration (IC50) was determined automatically for three to five dose-effect levels. Cell growth in the absence of plant compound and in the presence of dimethylsulfoxide was used as a control. Dimethylsulfoxide alone inhibited cell growth 3.9%±1.5% during the 72 h incubation period. Those data with negative values represent activations.

[4] = at 0.03 mg/mL, read-out: % Inhibition of Precursor Incorporation, RNA
[5] = HL-60, at 0.03 mg/mL, read-out: % Inhibition of Precursor Incorporation, Protein
[6] = read-out: % Inhibition of Precursor Incorporation, RNA, at 0.03 mg/mL
[7] = HL-60, read-out: % Inhibition of Precursor Incorporation, Protein, at 0.03 mg/mL

IC50 (HL-60 cells; Homo sapiens) | Cell Growth Inhibition, IC50 (HL-60 cells) [µg/mL] | IC50 (HL-60 cells) [µM] | Compound | inhibition at 30 µg/mL [1] [%] | inhibition at 30 µg/mL [2, 4] [%] | inhibition at 30 µg/mL [3, 5] [%] | cell growth inhibition, in words (HL-60 cells) | inhibition of DNA synthesis, in words [1] | % Inhibition of Precursor Incorporation, DNA [1] [%] | % Inhibition of Precursor Incorporation, RNA ([2]; at 0.03 mg/mL) [%] | % Inhibition of Precursor Incorporation, Protein [3] [%] | inhibition at 30 µg/mL [2, 6] [%] | inhibition at 30 µg/mL [3, 7] [%]
6.4 µg/mL and 18 µM |  |  | COc1c(O)ccc2c(=O)c3c(O)cc4c(c3n(C)c12)CCC(C)(C)O4 [Compound 43, 1,2-dihydrocitracridone-I] | 94.9 | 68 | 81.9 | only half as potent as their parent compounds | same potency as their parent compounds |  |  |  |  | 
> 40 µg/mL and > 109 µM |  |  | COc1ccc2c(=O)c3c(O)cc4c(c3n(C)c2c1OC)C=CC(C)(C)O4 [Compound 44, Citracridone-II] | 77.6 | 96.4 | 62.7 |  |  |  |  |  |  | 
5.9 µg/mL and 15.5 µM |  |  | COc1ccc2c(=O)c3c(OC)cc4c(c3n(C)c2c1OC)C=CC(C)(C)O4 [Compound 45, 6-O-Methylcitracridone-II] | 98.7 | 37.8 | 49.8 | significantly active |  |  |  |  |  | 
8.8 µg/mL and 20.3 µM |  |  | CC(=O)Oc1cccc2c(=O)c3c(O)c(CC=C(C)C)c4c(c3n(C)c12)C=CC(C)(C)O4 [Compound 47, 11-O-Acetyl-N-methyl severifoline] | 58.4 | 16.2 | 36.2 |  |  |  |  |  |  | 
3.1 µg/mL and 8.8 µM |  |  | COc1c2c(c(O)c3c(=O)c4cccc(O)c4n(C)c13)C=CC(C)(C)O2 [Compound 48, Pyranofoline] | 98.8 | 97.2 | 96.4 | better activity than that of acronycine | inhibited DNA synthesis significantly |  |  |  |  | 
 | > 40 | > 66.4 | CC(C)=CCc1c(O)c(C2CC(C)(C)Oc3cc(O)c4c(=O)c5ccccc5[nH]c4c32)c(O)c2c(=O)c3ccccc3n(C)c12 (centres unmarked) [Compound 52, Glycobismine-A] |  |  |  |  | not active | -27.8 | -57.4 | -13.2 |  | 
 | > 40 | > 124 | Furofoline-II [Compound 51] |  |  |  |  | not active | 13.1 | -46.3 | 19.5 |  | 
 | 18.7 | 47.1 | Methoxymethyl-pyranofoline [Compound 49] |  |  |  |  | inhibited DNA synthesis significantly | 85.3 | 70.1 | 87.3 |  | 

More lines, now with the values behind:

Compound | IC50 (HL-60 cells; Homo sapiens) | Cell Growth Inhibition, IC50 (HL-60 cells) [µg/mL] | IC50 (HL-60 cells) [µM] | inhibition at 30 µg/mL [1] [%] | inhibition at 30 µg/mL [2, 4] [%] | inhibition at 30 µg/mL [3, 5] [%] | cell growth inhibition, in words (HL-60 cells) | inhibition of DNA synthesis, in words [1] | % Inhibition of Precursor Incorporation, DNA [1] [%] | % Inhibition of Precursor Incorporation, RNA ([2]; at 0.03 mg/mL) [%] | % Inhibition of Precursor Incorporation, Protein [3] [%] | inhibition at 30 µg/mL [2, 6] [%] | inhibition at 30 µg/mL [3, 7] [%]
COc1cc(O)c2c(=O)c3ccc(O)c(OC)c3n(C)c2c1CC=C(C)C [Compound 29, Grandisinine] | 6 µg/mL and 16.9 µM |  |  | 98.5 | 96.5 | 94.6 | significant activity against leukemic cells in vitro |  |  |  |  |  | 
COc1ccc2c(=O)c3c(O)cc(OC)c(CC=C(C)C)c3n(C)c2c1OC [Compound 30, Balyumine-B] | 1.7 µg/mL and 4.4 µM |  |  | 86.9 | 92.5 | 87 |  |  |  |  |  |  | 
CC1(C)C=Cc2c(cc(O)c3c(=O)c4ccccc4[nH]c23)O1 [Compound 32, des-N-methyl-nor-acronycine] | 9.1 µg/mL and 31 µM |  |  | 69.2 | 77.5 | 85.9 | only showed moderate cell growth inhibitory activity | did not show good activity |  |  |  |  | 
COc1cc2c(c3[nH]c4ccccc4c(=O)c13)C=CC(C)(C)O2 [Compound 33, des-N-methyl acronycine] | 5.4 µg/mL and 17.6 µM |  |  | 93.8 | 67.3 | 86.4 | significantly active | markedly increased |  |  |  |  | 
Cn1c2ccccc2c(=O)c2c(O)cc3c(c21)C=CC(C)(C)O3 [Compound 35, Noracronycine] | > 40 µg/mL and > 130 µM |  |  | 25.5 | 94 | 4.7 | only showed moderate cell growth inhibitory activity |  |  |  |  |  | 
Cn1c2c(O)cccc2c(=O)c2c(O)cc3c(c21)CCC(C)(C)O3 [Compound 38, 1,2-Dihydro-11-hydroxy-nor acronycine] | 5.5 µg/mL and 16.9 µM |  |  | 98.8 | 76.6 | 92.2 | only half as potent as their parent compounds | same potency as their parent compounds |  |  |  |  | 
COc1cccc2c(=O)c3c(O)cc4c(c3n(C)c12)C=CC(C)(C)O4 [Compound 39, 11-methoxy-noracronycine] |  | 5.8 | 17.2 |  |  |  |  |  | 98.9 | 39.9 | 36.2 |  | 
CC(C)=CCc1c2c(c3[nH]c4c(O)cccc4c(=O)c3c1O)C=CC(C)(C)O2 [Compound 40, Atalaphyllinine] | 1.2 µg/mL and 3.2 µM |  |  | 98.8 |  |  | comparable activity | greater activity |  |  |  | 24.4 | 41.8
CC(C)=CCc1c2c(c3c(c1O)c(=O)c1ccccc1n3C)C=CC(C)(C)O2 [Compound 41, N-Methylseverifoline] | > 40 µg/mL and > 107 µM |  |  | 21.3 | -17.9 | 13.2 | only showed moderate cell growth inhibitory activity | no effect on the inhibitory activity |  |  |  |  | 
COc1c(O)ccc2c(=O)c3c(O)cc4c(c3n(C)c12)C=CC(C)(C)O4 [Compound 42, Citracridone-I] | 2.9 µg/mL and 8.2 µM |  |  | 98.5 | 96.9 | 90.5 |  |  |  |  |  |  | 
CC(C)=CCc1c2c(c3c(c1O)c(=O)c1cccc(O)c1n3C)C=CC(C)(C)O2 [Compound 46, 11-Hydroxy-N-methyl severifoline] | 5.9 µg/mL and 15.1 µM |  |  | 97.9 |  |  |  | significant activity |  |  |  | 16.7 | 4.22

— US5340818A, “Methods and compositions for inhibiting tumor cell growth” (priority 1993, dated 1994)
